The target of this experiment is T1, pig liver glycolate oxidase (Sus scrofa, UniProt I3LVF1).
T1 construct: The enzyme was pig liver glycolate oxidase; from tissue; host or cells: pig liver
T1 sequence (I3LVF1 1-370): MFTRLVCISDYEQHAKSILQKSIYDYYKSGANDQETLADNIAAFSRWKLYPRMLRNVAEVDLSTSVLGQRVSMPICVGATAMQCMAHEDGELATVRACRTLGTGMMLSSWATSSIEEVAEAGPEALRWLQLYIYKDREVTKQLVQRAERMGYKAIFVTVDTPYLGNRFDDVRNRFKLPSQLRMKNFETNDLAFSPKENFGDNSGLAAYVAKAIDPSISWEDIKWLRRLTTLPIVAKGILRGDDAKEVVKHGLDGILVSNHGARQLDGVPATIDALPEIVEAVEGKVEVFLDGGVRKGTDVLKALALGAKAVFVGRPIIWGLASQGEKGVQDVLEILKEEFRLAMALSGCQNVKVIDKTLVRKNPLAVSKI
The experiment can be described thus: Glycolate Oxidase Enzyme Inhibition. The class given is biochemical. As to conditions: 25° C., 0.10 M phosphate buffer, pH 7.0, 3 mM EDTA; 5×10^-5 M sodium 2,6-dichlorophenol-indophenol, 2×10^-4 M sodium glycolate; initial rates 1 to 3 min., 600 nm. Here is the method: The usefulness of the compounds of the present invention in treating urinary tract, especially renal, calcium oxalate lithiasis, was shown by the ability of those compounds to inhibit the glycolate oxidase enzyme. […] The activity of the enzyme, in turn, was measured by following the rate of reduction of sodium 2,6-dichlorophenol-indophenol by sodium glycolate in the presence of the enzyme. The enzyme was pig liver glycolate oxidase. The reaction was followed spectrophotometrically at 600 nm. The assay was conducted at 25° C. in a 0.10 M phosphate buffer, pH 7.0, containing 3 mM EDTA. Initial substrate concentrations were 5×10^-5 M of sodium 2,6-dichlorophenol-indophenol and 2×10^-4 M of sodium glycolate. Reactions were initiated by the addition of enzyme. Initial rates during the period from 1 to 3 min. after the addition of enzyme were recorded on a Beckman Acta M-VI spectrophotometer. One control was run simultaneously with three test reactions, and all initial rates were adjusted to a common control rate. For further details of this procedure, see Randall et al., J. Med. Chem. 22, 6, 612 (1979).

pIC50: −log10 of the molar value.

Take `O=C1NS(=O)(=O)C(c2ccccc2)=C1O` [4-Hydroxy-5-phenyl-3(2H)-isothiazolone-1,1-dioxide]: the pIC50 was 5.68.

By pIC50 is commonly meant the IC50 on a negative log10 scale, so that one unit is a factor of ten. Low readings indicate a large IC50, high ones a small IC50.

For the origin of these results see patent US4428956A, “4-Hydroxy-5-substituted-3-(2H)-isothiazolone-1,1-dioxide derivatives useful in treating urinary tract calcium oxalate lithiasis” (Merck & Co., Inc., priority 1980, dated 1984).
